Data from patent publication US11667645B2, “Granzyme B directed imaging and therapy” (CytoSite Biopharma Inc., priority 2018, dated 2023).
Read-outs that look alike come from different tables or passages of the source.

Target: Granzyme B (human lymphocytes) (Homo sapiens (Human), UniProt P10144)
Test: human Granzyme B biochemical assay
Outline: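 Fluorogenic Ac-IETD-AFC cleavage (Ex 400/Em 505 nm) read after 60 min at 22 °C, following 30 min, 22 °C enzyme–compound pre-incubation. Working stocks: enzyme 10 nM in 0.1% BSA buffer, substrate 800 µM, compound 8 points, 3.16-fold from 40 µM. Controls set 0% (DMSO) and 100% (standard inhibitor) inhibition; IC50 fitted.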

[1] = Granzyme B (human lymphocytes) 5 nM, substrate Ac-IETD-AFC 200 μM, Cpd incubation with enzyme 30 mins, 22° C., read time 60 mins, read-out: IC50

Granzyme B (human lymphocytes), sequence (P10144 21-247): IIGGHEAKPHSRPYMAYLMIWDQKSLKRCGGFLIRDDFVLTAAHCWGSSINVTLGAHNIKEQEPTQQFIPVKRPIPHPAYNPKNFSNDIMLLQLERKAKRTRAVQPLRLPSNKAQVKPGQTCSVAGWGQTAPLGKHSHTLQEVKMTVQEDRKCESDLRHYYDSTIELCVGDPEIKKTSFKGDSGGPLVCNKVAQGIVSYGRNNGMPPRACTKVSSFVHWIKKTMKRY

Row | Compound | IC50 [1] [nM] | IC50 [nM]
1 | CC(=O)N[C@H](C(=O)N[C@H]1CCc2cccc3c2N(C1=O)[C@H](C(=O)N[C@@H](C)C(=O)O)C3)C(C)C [Compound C089, (S)-2-{[(2S,5S)-5-((S)-2-Acetylamino-3-methyl-butyrylamino)-4-oxo-1,2,4,5,6,7-hexahydro-azepino[3,2,1-hi]indole-2-carbonyl]-amino}-propionicacid] | > 5000 | –
2 | O=C(Cc1csc2ccccc12)NCC(=O)N[C@H]1CCc2cccc3c2N(C1=O)[C@H](C(=O)NCc1c[nH]nn1)C3 [Compound C001, (2S,5S)-5-[2-(2-Benzo[b]thiophen-3-yl-acetylamino)-acetylamino]-4-oxo-1,2,4,5,6,7-hexahydro-azepino[3,2,1-hi]indole-2-carboxylic acid (1H-[1,2,3]triazol-4-ylmethyl)-amide] | > 5000 | –
3 | C[C@H](NC(=O)c1ccccc1)C(=O)N[C@H]1CCc2cccc3c2N(C1=O)[C@H](C(=O)NCc1c[nH]nn1)C3 [Compound C035, (2S,5S)-5-((S)-2-Benzoylamino-propionylamino)-4-oxo-1,2,4,5,6,7-hexahydro-azepino[3,2,1-hi]indole-2-carboxylic acid (1H-[1,2,3]triazol-4-ylmethyl)-amide] | > 5000 | –
4 | CC[C@H](C)[C@H](NC(=O)c1ccccc1OC)C(=O)N[C@H]1CCc2cccc3c2N(C1=O)[C@H](C(=O)NCc1c[nH]nn1)C3 [Compound C060, (2S,5S)-5-[(2S,3S)-2-(2-Methoxy-benzoylamino)-3-methyl-pentanoylamino]-4-oxo-1,2,4,5,6,7-hexahydro-azepino[3,2,1-hi]indole-2-carboxylic acid(1H-[1,2,3]triazol-4-ylmethyl)-amide] | 1 to 300 | –
5 | CC(=O)N[C@@H](CCC(=O)O)C(=O)N[C@H]1CCc2cccc3c2N(C1=O)[C@H](C(=O)NCc1c[nH]nn1)C3 [Compound C030, (S)-4-Acetylamino-4-{(2S,5S)-4-oxo-2-[(1H-[1,2,3]triazol-4-ylmethyl)-carbamoyl]-1,2,4,5,6,7-hexahydro-azepino[3,2,1-hi]indol-5-ylcarbamoyl}-butyric acid] | > 5000 | –
6 | COC(=O)CC[C@H](NC(=O)[C@@H]1Cc2cccc3c2N1C(=O)[C@@H](NC(=O)[C@@H](NC(C)=O)C(C)C)CC3)C(=O)OC [Compound C095, (S)-2-{[(2S,5S)-5-((S)-2-Acetylamino-3-methyl-butyrylamino)-4-oxo-1,2,4,5,6,7-hexahydro-azepino[3,2,1-hi]indole-2-carbonyl]-amino}-pentanedioic acid dimethyl ester] | > 5000 | –
7 | C[C@H](NC(=O)Cc1csc2ccccc12)C(=O)N[C@H]1CCc2cccc3c2N(C1=O)[C@H](C(=O)NCc1c[nH]nn1)C3 [Compound C002, (2S,5S)-5-[(S)-2-(2-Benzo[b]thiophen-3-yl-acetylamino)propionylamino]-4-oxo-1,2,4,5,6,7-hexahydro-azepino[3,2,1-hi]indole-2-carboxylic acid (1H-[1,2,3]triazol-4-ylmethyl)amide] | 1000 to 5000 | –
8 | COc1cccc(C(=O)N[C@H](C(=O)N[C@H]2CCc3cccc4c3N(C2=O)[C@H](C(=O)NCc2c[nH]nn2)C4)C(C)C)c1 [Compound C064, (2S,SS)-5-[(S)-2-(3-Methoxy-benzoylamino)-3-methyl-butyrylamino]-4-oxo-1,2,4,5,6,7-hexahydro-azepino[3,2,1-hi]indole-2-carboxylic acid (1H-[1,2,3]triazol-4-ylmethyl)-amide] | 1 to 300 | –
9 | COc1ccc(C(=O)N[C@H](C(=O)N[C@H]2CCc3cccc4c3N(C2=O)[C@H](C(=O)NCc2c[nH]nn2)C4)C(C)C)cc1 [Compound C065, (2S,5S)-5-[(S)-2-(4-Methoxy-benzoylamino)-3-methyl-butyrylamino]-4-oxo-1,2,4,5,6,7-hexahydro-azepino[3,2,1-hi]indole-2-carboxylic acid (1H-[1,2,3]triazol-4-ylmethyl)-amide] | 1 to 300 | –
10 | O=C(N[C@H](C(=O)N[C@H]1CCc2cccc3c2N(C1=O)[C@H](C(=O)NCc1c[nH]nn1)C3)C1CCCC1)c1ccccc1 [Compound C076, (2S,5S)-5-((S)-2-Benzoylamino-2-cyclopentyl-acetylamino)-4-oxo-1,2,4,5,6,7-hexahydro-azepino[3,2,1-hi]indole-2-carboxylic acid (1H-[1,2,3]triazol-4-ylmethyl)-amide] | 1 to 300 | –
11 | O=C(Cc1csc2ccccc12)N[C@H](C(=O)N[C@H]1CCc2cccc3c2N(C1=O)[C@H](C(=O)NCc1c[nH]nn1)C3)C1CCCCC1 [Compound C078, (2S,5S)-5-[(S)-2-(2-Benzo[b]thiophen-3-yl-acetylamino)-2-cyclohexyl-acetylamino]-4-oxo-1,2,4,5,6,7-hexahydro-azepino[3,2,1-hi]indole-2-carboxylic acid (1H-[1,2,3]triazol-4-ylmethyl)-amide] | 301 to 1000 | –
12 | O=C(N[C@H](C(=O)N[C@H]1CCc2cccc3c2N(C1=O)[C@H](C(=O)NCc1c[nH]nn1)C3)C1CCCCC1)c1ccccc1 [Compound C079, (2S,5S)-5-((S)-2-Benzoylamino-2-cyclohexyl-acetylamino)-4-oxo-1,2,4,5,6,7-hexahydro-azepino[3,2,1-hi]indole-2-carboxylic acid (1H-[1,2,3]triazol-4-ylmethyl)-amide] | 1000 to 5000 | –
13 | CC(C)[C@H](NC(=O)CF)C(=O)N[C@H]1COc2cccc3c2N(C1=O)[C@H](C(=O)NCc1c[nH]nn1)C3 [Compound C102, (1S,8S)-8-[(S)-2-(2-Fluoro-acetylamino)-3-methyl-butyrylamino]-9-oxo-1,2,8,9-tetrahydro-7H-6-oxa-9a-aza-benzo[cd]azulene-1-carboxylic acid (1H-[1,2,3]triazol-4-ylmethyl)-amide] | – | 1 to 300
14 | O=C(N[C@@H](Cc1ccc(F)cc1)C(=O)N[C@H]1CCc2cccc3c2N(C1=O)[C@H](C(=O)NCc1c[nH]nn1)C3)c1ccccc1 [Compound C043, (2S,5S)-5-[(S)-2-Benzoylamino-3-(4-fluoro-phenyl)-propionylamino]-4-oxo-1,2,4,5,6,7-hexahydro-azepino[3,2,1-hi]indole-2-carboxylic acid (1H-[1,2,3]triazol-4-ylmethyl)-amide] | > 5000 | –
15 | CC(C)(C)[C@H](NC(=O)c1ccccc1)C(=O)N[C@H]1CCc2cccc3c2N(C1=O)[C@H](C(=O)NCc1c[nH]nn1)C3 [Compound C046, (2S,5S)-5-((S)-2-Benzoylamino-3,3-dimethyl-butyrylamino)-4-oxo-1,2,4,5,6,7-hexahydro-azepino[3,2,1-hi]indole-2-carboxylic acid (1H-[1,2,3]triazol-4-ylmethyl)-amide] | 301 to 1000 | –

Continued, in another order:

Row | IC50 [1] [nM] | Compound | IC50 [nM]
16 | 1 to 300 | CC[C@H](C)[C@H](NC(=O)Cc1cc2ccccc2s1)C(=O)N[C@H]1CCc2cccc3c2N(C1=O)[C@H](C(=O)NCc1c[nH]nn1)C3 [Compound C158, (2S,5S)-5-[(2S,3S)-2-(2-Benzo[b]thiophen-2-yl-acetylamino)-3-methyl-pentanoylamino]-4-oxo-1,2,4,5,6,7-hexahydro-azepino[3,2,1-hi]indole-2-carboxylic acid (1H-[1,2,3]triazol-4-ylmethyl)-amide] | –
17 | > 5000 | CC(=O)N[C@H]1CCc2cccc3c2N(C1=O)[C@H](C(=O)NCc1c[nH]nn1)C3 [Compound C148, (2S,5S)-5-Acetylamino-4-oxo-1,2,4,5,6,7-hexahydro-azepino[3,2,1-hi]indole-2-carboxylic acid (1H-[1,2,3]triazol-4-ylmethyl)-amide] | –
18 | > 5000 | CC[C@H](C)[C@H](NC(=O)COCCF)C(=O)N[C@H]1CCc2cccc3c2N(C1=O)[C@H](C(=O)NCc1ccn[nH]1)C3 [Compound C149, (2S,5S)-5-{(2S,3S)-2-[2-(2-Fluoro-ethoxy)-acetylamino]-3-methyl-pentanoylamino}-4-oxo-1,2,4,5,6,7-hexahydro-azepino[3,2,1-hi]indole-2-carboxylic acid (2H-pyrazol-3-ylmethyl)-amide] | –
19 | 1 to 300 | CC[C@H](C)[C@H](NC(=O)COCCF)C(=O)N[C@H]1CNc2cccc3c2N(C1=O)[C@H](C(=O)NCc1c[nH]nn1)C3 [Compound C143, (3S,6S)-3-{(2S,3S)-2-[2-(2-Fluoro-ethoxy)-acetylamino]-3-methyl-pentanoylamino}-4-oxo-1,2,3,4,6,7-hexahydro-[1,4]diazepino[3,2,1-hi]indole-6-carboxylic acid (1H-[1,2,3]triazol-4-ylmethyl)-amide] | –
20 | > 5000 | CC[C@H](C)[C@H](NC(=O)COCCF)C(=O)N[C@H]1CCc2cccc3c2N(C1=O)[C@H](C(=O)NCc1cn[nH]c1)C3 [Compound C116] | –
21 | 1 to 300 | CC[C@H](C)[C@H](NC(=O)COCCF)C(=O)N[C@H]1CN(C)c2cccc3c2N(C1=O)[C@H](C(=O)NCc1c[nH]nn1)C3 [Compound C144, (3S,6S)-3-{(2S,3S)-2-[2-(2-Fluoro-ethoxy)-acetylamino]-3-methyl-pentanoylamino}-1-methyl-4-oxo-1,2,3,4,6,7-hexahydro-[1,4]diazepino[3,2,1-hi]indole-6-carboxylic acid (1H-[1,2,3]triazol-4-ylmethyl)-amide] | –
22 | 1 to 300 | CC[C@H](C)[C@H](NC(=O)Cc1nc2ccccc2o1)C(=O)N[C@H]1CCc2cccc3c2N(C1=O)[C@H](C(=O)NCc1c[nH]nn1)C3 [Compound C160, (2S,5S)-5-[(2S,3S)-2-(2-Benzooxazol-2-yl-acetylamino)-3-methyl-pentanoylamino]-4-oxo-1,2,4,5,6,7-hexahydro-azepino[3,2,1-hi]indole-2-carboxylic acid (1H-[1,2,3]triazol-4-ylmethyl)-amide] | –
23 | > 5000 | CC[C@H](C)[C@H](NC(=O)COCCF)C(=O)N[C@H]1CCc2cccc3c2N(C1=O)[C@H](C(=O)NCc1ccccn1)C3 [Compound C121, (2S,5S)-5-{(2S,3S)-2-[2-(2-Fluoro-ethoxy)-acetylamino]-3-methyl-pentanoylamino}-4-oxo-1,2,4,5,6,7-hexahydro-azepino[3,2,1-hi]indole-2-carboxylic acid (pyridin-2-ylmethyl)-amide] | –
